This passage reports Ki results from patent publication US8999998B2, “Pyrazolopyrimidine JAK inhibitor compounds and methods” (Genentech, Inc., priority 2009, dated 2015).

Common to all, as to type: biochemical
Assay [1] has as its target JAK2 kinase domain (Homo sapiens (Human), UniProt O60674). Nature of the assay: JAK2 inhibition assay (Caliper LabChip, isolated kinase domain). Conditions: 25 uM ATP, 0.2 nM JAK2; read-out: JAK2 enzymatic activity (Ki). The text has this:
(§1) The catalytically active kinase domain of human JAK1, JAK2, JAK3 or TYK2 was purified from extracts of SF9 insect cells infected with a recombinant baculovirus expression vector encoding the human JAK1, JAK2, JAK3 or TYK2 kinase domains (JAK1 amino acid residues N852-D1154 according to the numbering of GenBank sequence accession number P23458, JAK2 amino acid residues D812-G1132 according to the numbering of GenBank sequence accession number NP_004963.1; JAK3 amino acid residues S783-S1124 according to the numbering of GenBank sequence accession number P52333, and TYK2 amino acid residues N873-C1187 according to the numbering of GenBank sequence accession number P29597). The activity of the JAK1, JAK2, JAK3 or TYK2 kinase domains can be measured by a number of direct and indirect methods, including quantification of phosphorylation of peptide substrates derived from the human JAK3 protein (Saltzman et al., Biochem. Biophys. Res. Commun. 246:627-633 (2004)). The activity of the JAK1, JAK2, JAK3 or TYK2 kinase domains was measured in vitro by monitoring phosphorylation of JAK3 derived peptides using the Caliper LabChip technology (see Examples).
(§2) The activity of the isolated JAK1, JAK2 or TYK2 kinase domain was measured by monitoring phosphorylation of a peptide derived from JAK3 ([…] fluorescently labeled on the N-terminus with 5-carboxyfluorescein using the Caliper LabChip technology (Caliper Life Sciences, Hopkinton, Mass.). […] Reactions were incubated at 22° C. in 384-well polypropylene microtiter plates for 30 minutes and then stopped by addition of 25 uL of an EDTA containing solution (100 mM Hepes pH 7.2, 0.015% Brij-35, 150 mM EDTA), resulting in a final EDTA concentration of 50 mM. After termination of the kinase reaction, the proportion of phosphorylated product was determined as a fraction of total peptide substrate using the Caliper LabChip 3000 according to the manufacturer's specifications. Ki values were then determined using the Morrison tight binding model. Morrison, J. F., Biochim. Biophys. Acta. 185:269-296 (1969); William, J. W. and Morrison, J. F., Meth. Enzymol., 63:437-467 (1979).

Assay [2] addresses JAK1 kinase domain (Homo sapiens (Human), UniProt P23458). Nature of the assay: JAK1 inhibition assay (Caliper LabChip, isolated kinase domain). As to conditions: 25 uM ATP, 1.5 nM JAK1; read-out: JAK1 enzymatic activity (Ki).
Description: as §1, §2

Assay [3] concerns the target JAK3 kinase domain (Homo sapiens (Human), UniProt P52333). Nature of the assay: JAK3 inhibition assay (Caliper LabChip, isolated kinase domain). Conditions: 5 uM ATP, 5 nM JAK3; read-out: JAK3 enzymatic activity (Ki).
Description: as §1, with “Previous studies have shown that the isolated kinase domains of human JAK1, JAK2, JAK3 or TYK2 phosphorylate peptide substrates in in vitro kinase assays (Saltzman et al., Biochem. Biophys. Res. Commun. 246:627-633 (2004)). The catalytically” for “The catalytically”
as §2, with “JAK3” for “JAK1, JAK2 or TYK2”

The target of assay [4] is TYK2 kinase domain (Homo sapiens (Human), UniProt P29597). Nature of the assay: TYK2 inhibition assay (Caliper LabChip, isolated kinase domain). As to conditions: 25 uM ATP, 1 nM TYK2; read-out: TYK2 enzymatic activity (Ki).
TYK2 kinase domain, sequence (P29597 873-1187): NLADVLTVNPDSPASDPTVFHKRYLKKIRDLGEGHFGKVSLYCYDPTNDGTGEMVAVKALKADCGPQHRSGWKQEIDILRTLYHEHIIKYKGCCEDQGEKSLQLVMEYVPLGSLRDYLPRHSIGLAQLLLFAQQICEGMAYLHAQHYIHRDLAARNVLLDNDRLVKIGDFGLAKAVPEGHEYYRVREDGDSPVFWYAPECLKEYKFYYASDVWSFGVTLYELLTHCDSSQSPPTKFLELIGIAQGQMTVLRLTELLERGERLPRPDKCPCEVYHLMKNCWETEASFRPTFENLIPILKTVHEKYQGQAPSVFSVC
Description: as §1, §2

JAK2 kinase domain, sequence (O60674 812-1132): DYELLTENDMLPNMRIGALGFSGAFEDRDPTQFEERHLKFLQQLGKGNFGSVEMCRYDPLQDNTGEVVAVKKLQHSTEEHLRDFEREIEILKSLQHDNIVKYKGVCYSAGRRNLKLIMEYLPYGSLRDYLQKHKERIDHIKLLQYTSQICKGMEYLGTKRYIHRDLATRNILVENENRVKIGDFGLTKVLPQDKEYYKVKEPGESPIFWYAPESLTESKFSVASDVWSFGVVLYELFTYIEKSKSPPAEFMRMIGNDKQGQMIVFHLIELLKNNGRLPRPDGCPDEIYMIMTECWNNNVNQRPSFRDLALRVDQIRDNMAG
JAK1 kinase domain, sequence (P23458 852-1154): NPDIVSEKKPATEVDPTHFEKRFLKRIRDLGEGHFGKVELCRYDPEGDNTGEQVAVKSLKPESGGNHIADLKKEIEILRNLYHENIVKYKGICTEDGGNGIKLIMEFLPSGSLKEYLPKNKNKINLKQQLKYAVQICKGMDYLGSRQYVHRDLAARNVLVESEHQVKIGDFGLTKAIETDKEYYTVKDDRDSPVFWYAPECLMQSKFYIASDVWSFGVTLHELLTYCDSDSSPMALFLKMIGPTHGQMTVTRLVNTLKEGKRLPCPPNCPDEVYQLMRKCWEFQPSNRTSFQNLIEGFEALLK
JAK3 kinase domain, sequence (P52333 783-1124): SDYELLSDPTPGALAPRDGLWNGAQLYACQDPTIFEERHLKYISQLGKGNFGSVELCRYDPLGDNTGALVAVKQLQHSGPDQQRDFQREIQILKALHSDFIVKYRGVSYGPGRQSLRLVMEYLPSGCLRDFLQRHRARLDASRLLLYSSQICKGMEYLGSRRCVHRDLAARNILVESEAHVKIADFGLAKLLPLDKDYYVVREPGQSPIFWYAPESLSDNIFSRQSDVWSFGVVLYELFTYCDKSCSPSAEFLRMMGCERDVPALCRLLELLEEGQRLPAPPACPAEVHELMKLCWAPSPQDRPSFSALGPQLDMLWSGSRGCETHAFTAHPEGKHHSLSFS

By Ki is commonly meant the equilibrium dissociation constant of an inhibitor or competing ligand from its target. Take `COc1ccc(Cl)cc1-c1nn(CC(=O)N2CC=CCC2)cc1NC(=O)c1cnn2cccnc12` [Example 300, N-(3-(5-chloro-2-methoxyphenyl)-1-(2-(5,6-dihydropyridin-1(2H)-yl)-2-oxoethyl)-1H-pyrazol-4-yl)pyrazolo[1,5-a]pyrimidine-3-carboxamide]: the Ki came to 0.0025 µM in assay [1], 0.0005 µM in assay [2], 0.17 µM in assay [3] and 0.01 µM in assay [4].
In the same order, the values of `COc1ccc(C#N)cc1-c1nn(CC2(O)CCCC2)cc1NC(=O)c1cnn2cccnc12` [Example 359, N-(3-(5-cyano-2-methoxyphenyl)-1-((1-hydroxycyclopentyl)methyl)-1H-pyrazol-4-yl)pyrazolo[1,5-a]pyrimidine-3-carboxamide] are 0.0042 µM, 0.001 µM, 0.69 µM and 0.046 µM.
In the same order, the values of `COc1ccc(F)cc1-c1nn(CC2(O)CCOCC2)cc1NC(=O)c1cnn2cccnc12` [Example 364, N-(3-(5-fluoro-2-methoxyphenyl)-1-((4-hydroxytetrahydro-2H-pyran-4-yl)methyl)-1H-pyrazol-4-yl)pyrazolo[1,5-a]pyrimidine-3-carboxamide] are 0.0062 µM, 0.0023 µM, 0.71 µM and 0.047 µM.
Regarding `CC1CCCCN1c1nn(CC(C)(C)O)cc1NC(=O)c1cnn2cccnc12` (stereo not shown) [Example 379, N-(1-(2-hydroxy-2-methylpropyl)-3-(2-methylpiperidin-1-yl)-1H-pyrazol-4-yl)pyrazolo[1,5-a]pyrimidine-3-carboxamide], the Ki in assay [1] worked out at 0.0263 µM; in assay [2] it was 0.0859 µM; in assay [3] it was 0.24 µM; in assay [4] it was 0.41 µM.
In the same order, the values of `N#CC1CCN(c2n[nH]cc2NC(=O)c2cnn3cccnc23)CC1` [Example 395, N-(3-(4-cyanopiperidin-1-yl)-1H-pyrazol-4-yl)pyrazolo[1,5-a]pyrimidine-3-carboxamide] are 0.0313 µM, 0.176 µM, 0.39 µM and 0.23 µM.
The corresponding values for `COc1ccc(Cl)cc1-c1nn(CC(O)(C(F)(F)F)C(F)(F)F)cc1NC(=O)c1cnn2cccnc12` [Example 432, N-(3-(5-chloro-2-methoxyphenyl)-1-(3,3,3-trifluoro-2-hydroxy-2-(trifluoromethyl)propyl)-1H-pyrazol-4-yl)pyrazolo[1,5-a]pyrimidine-3-carboxamide] are 0.0057 µM, 0.0015 µM, 0.57 µM and 0.031 µM.
Turning to `COc1ncc(Cl)cc1-c1nn(CC(=O)N(C)C)cc1NC(=O)c1cnn2cccnc12` [Example 499, N-(3-(5-chloro-2-methoxypyridin-3-yl)-1-(2-(dimethylamino)-2-oxoethyl)-1H-pyrazol-4-yl)pyrazolo[1,5-a]pyrimidine-3-carboxamide], the Ki in assay [1] amounted to 0.0058 µM; in assay [2] it was 0.0016 µM; in assay [3], 0.78 µM; in assay [4], 0.014 µM.
